Experimental data: publication PMC10657444, “Design and evaluation of tadpole-like conformational antimicrobial peptides” (Communications Biology, 2023)
Converted amounts (≈) assume the structure as drawn. Where two headings read alike, the source gives them in different places. Residues, ends and D or L forms follow the SMILES beside them.

Key:
[1] = tested on: Gram-negative bacterial strains; type: cell-based
Source text: (§1) Bacteria were cultivated in Luria-Bertani (LB) broth.

[2] = tested on: K. pneumoniae ATCC 700603; type: cell-based, Klebsiella pneumoniae
Source text: as §1

[3] = tested on: K. pneumoniae 3026; type: cell-based, Klebsiella pneumoniae
Source text: as §1

[4] = tested on: MRSA 3393; type: cell-based, Staphylococcus aureus
Source text: as §1

[5] = tested on: MRSA USA 300; type: cell-based, Staphylococcus aureus
Source text: as §1

[6] = tested on: MRSA ATCC 43300; type: cell-based, Staphylococcus aureus
Source text: as §1

[7] = tested on: A. baumannii 1318; type: cell-based, Acinetobacter baumannii
Source text: as §1

[8] = tested on: A. baumannii 1337; type: cell-based, Acinetobacter baumannii
Source text: as §1

[9] = tested on: sheep red blood cells; experiment: Hemolysis assay; conditions: red cells of sheep, 1 h
Experimental: To evaluate the hemolysis effects of peptides, red blood hemolysis was performed as described with minimum modifications. Sterile defibrated sheep blood was purchased from Guangzhou Hongquan Biotechnology Co., LTD. Blood cells were adjusted to 2 × 10^9 cells/mL in phosphate-buffered saline (PBS, pH 7.4). In total, 98 μL sheep red blood cell suspension was incubated with 2 μL of peptides at different concentrations ranging from 3.13 to 100 µM. After incubation for 1 h at 37 °C, the cells were centrifuged and the absorbance of the supernatant was measured at 450 nm. The value for “zero hemolysis” was determined using sterile PBS, while 100% hemolysis was established using 1.5% (v/v) Triton X-100. Hemolysis of testing sample was calculated as the percentage of Triton X-100-induced hemolysis.

[10] = MTT cytotoxicity assay; type: cell-based, human; conditions: human; for viability at 72 h, 0.39 µM / viability at 72 h, 0.78 µM / viability at 72 h, 1.57 µM / viability at 72 h, 6.25 µM / viability at 72 h, 12.5 µM / viability at 72 h, 25 µM / viability at 72 h, 50 µM / viability at 72 h, 100 µM / viability at 72 h, 3.13 µM: HEK293T cells
Experimental: (§2) To determine the cytotoxicity of the peptides, we used the MTT (3-(4,5)-dimethylthiahiazo (-z-y1)-3,5-di-phenytetrazoliumromide) dye reduction assay against HEK293T cells. In brief, the 100 μL of cells in 96-well plate were incubated for 24 h at 37 °C, 5% CO2, and then peptide solutions (concentrations ranging from 100 to 0.39 μM) were added and further incubated for 72 h. MTT solution (5 mg/mL) was added and further incubated for 4 h. After incubation, the precipitated MTT formazan crystal was dissolved by addition of dimethyl sulfoxide (DMSO). […]

[11] = tested on: HEK293T cells; experiment: MTT cytotoxicity assay; type: cell-based, human
Experimental: as §2

[12] = tested on: E. coli ATCC 25922; type: cell-based, Escherichia coli
Source text: as §1

[13] = tested on: E. coli S; type: cell-based, Escherichia coli
Source text: as §1

[14] = tested on: MRSA; type: cell-based, Staphylococcus aureus
Source text: as §1

[15] = OD450, cytotoxicity (Fig 2a), replicates

| Compound | MIC Gram- K. p ATCC 700603 [2] [µM] | MIC Gram- K. p 3026 [3] [µM] | MIC Gram+ MRSA USA 300 [5] [µM] | MIC Gram+ MRSA ATCC 43300 ([6]; ATCC 43300) [µM] | MIC Gram- A. b 1318 [7] [µM] | MIC Gram- A. b 1337 [8] [µM] | HC10 (concentration inducing 10% hemolysis) [9] [µM] | IC50 at 72 h [10] [µM] | viability at 72 h, 0.39 µM [10, 15] [%] | viability at 72 h, 0.78 µM [10, 15] [%] | viability at 72 h, 1.57 µM [10, 15] [%] | viability at 72 h, 6.25 µM [10, 15] [%] | viability at 72 h, 12.5 µM [10, 15] [%] | viability at 72 h, 25 µM [10, 15] [%] | viability at 72 h, 50 µM [10, 15] [%] | viability at 72 h, 100 µM [10, 15] [%] | toxicity / cytotoxicity against HEK293T cells (in words) [11] | MIC Gram- E. coli ATCC 25922 [12] [µM] | MIC Gram- E. coli S [13] [µM] | MIC Gram+ MRSA 3393 [4]; 3393 [µM] | other results |
| --- | --- | --- | --- | --- | --- | --- | --- | --- | --- | --- | --- | --- | --- | --- | --- | --- | --- | --- | --- | --- | --- |
| CC[C@H](C)[C@H](NC(=O)[C@H](CCCNC(=N)N)NC(=O)[C@H](CCCNC(=N)N)NC(=O)[C@H](CC(C)C)NC(=O)[C@H](Cc1ccccc1)NC(=O)[C@H](Cc1ccccc1)NC(=O)[C@H](Cc1ccccc1)NC(=O)[C@@H](N)Cc1ccccc1)C(=O)N[C@@H](Cc1ccccc1)C(=O)N[C@@H](CCCNC(=N)N)C(=O)N[C@@H](CCCNC(=N)N)C(N)=O [F-SHf(R^5)-RR] (H-FFFFLRRIFRR-NH2; N-terminus assumed) | 25 (≈ 40.1 µg/mL) | 12.5 (≈ 20 µg/mL) | 1.57 (≈ 2.52 µg/mL) | 1.57 (≈ 2.52 µg/mL) | 12.5 (≈ 20 µg/mL) | 12.5 (≈ 20 µg/mL) | > 100.0 | 0.5 | 69.1 | 45.9 | 6.12 | 3.98 | 2.72 | 3.79 | 2.62 | 1.75 | high toxicity | 12.5 (≈ 20 µg/mL) | 6.25 (≈ 10 µg/mL) | – | MICs against the tested Gram-negative bacterial strains [1]: 6.25 to 25 µM; MIC Gram+ MRSA 3393 [4]: 1.57 µM (≈ 2.52 µg/mL); MIC Gram+ MRSA ATCC 43300 [6]: 1.57 µM (≈ 2.52 µg/mL) |
| CC[C@H](C)[C@H](NC(=O)[C@H](CCCNC(=N)N)NC(=O)[C@H](CCCNC(=N)N)NC(=O)[C@H](CC(C)C)NC(=O)[C@H](Cc1ccccc1)NC(=O)[C@H](Cc1ccccc1)NC(=O)[C@H](Cc1ccccc1)NC(=O)[C@@H](N)Cc1ccccc1)C(=O)N[C@@H](Cc1ccccc1)C(=O)N[C@@H](CCCNC(=N)N)C(N)=O [F-SHf(R^5)-R] (H-FFFFLRRIFR-NH2; N-terminus assumed) | 12.5 (≈ 18.1 µg/mL) | 25 (≈ 36.2 µg/mL) | 1.57 (≈ 2.27 µg/mL) | 1.57 (≈ 2.27 µg/mL) | 12.5 (≈ 18.1 µg/mL) | 12.5 (≈ 18.1 µg/mL) | 36.5 | 0.2 | 35.2 | 26.2 | 12.3 | 4.46 | 3.13 | 3.84 | 2.63 | 1.58 | high toxicity | 6.25 (≈ 9.05 µg/mL) | 12.5 (≈ 18.1 µg/mL) | – | MICs against the tested Gram-negative bacterial strains [1]: 6.25 to 25 µM; MIC Gram+ MRSA 3393 [4]: 1.57 µM (≈ 2.27 µg/mL); MIC Gram+ MRSA ATCC 43300 [6]: 1.57 µM (≈ 2.27 µg/mL); viability at 72 h, 3.13 µM [10, 15]: 9.86% |
| CC[C@H](C)[C@H](NC(=O)[C@H](CCCNC(=N)N)NC(=O)[C@H](CCCNC(=N)N)NC(=O)[C@H](CC(C)C)NC(=O)[C@H](Cc1ccccc1)NC(=O)[C@H](Cc1ccccc1)NC(=O)[C@H](Cc1ccccc1)NC(=O)[C@@H](N)Cc1ccccc1)C(=O)N[C@@H](Cc1ccccc1)C(N)=O [F-SHf(R^5)] (H-FFFFLRRIF-NH2; N-terminus assumed) | > 100 | 100 (≈ 129 µg/mL) | 3.13 (≈ 4.04 µg/mL) | 1.57 (≈ 2.03 µg/mL) | 25 (≈ 32.3 µg/mL) | 25 (≈ 32.3 µg/mL) | 7.9 | 4.6 | 102 | 89.7 | 89.3 | 40.1 | 20.8 | 12.3 | 16.4 | 17.1 | high toxicity | 12.5 (≈ 16.1 µg/mL) | 50 (≈ 64.6 µg/mL) | 1.57 (≈ 2.03 µg/mL) | viability at 72 h, 3.13 µM [10, 15]: 78.6% |
| CC[C@H](C)[C@H](NC(=O)[C@H](CCCNC(=N)N)NC(=O)[C@H](CO)NC(=O)[C@H](CC(C)C)NC(=O)[C@H](Cc1ccccc1)NC(=O)[C@H](Cc1ccccc1)NC(=O)[C@H](Cc1ccccc1)NC(=O)[C@H](Cc1ccccc1)NC(=O)[C@@H](N)Cc1ccccc1)C(=O)N[C@@H](Cc1ccccc1)C(N)=O [FF-SHf] (H-FFFFFLSRIF-NH2; N-terminus assumed) | > 100 | > 100 | 6.25 (≈ 8.56 µg/mL) | 50 (≈ 68.5 µg/mL) | > 100 | > 100 | – | – | – | – | – | – | – | – | – | – | – | > 100 | > 100 | 3.13 (≈ 4.29 µg/mL) | MICs against MRSA [14]: 3.13 to 50 µM |
| CC[C@H](C)[C@H](NC(=O)[C@H](CCCNC(=N)N)NC(=O)[C@H](CCCNC(=N)N)NC(=O)[C@H](CC(C)C)NC(=O)[C@H](Cc1ccccc1)NC(=O)[C@H](CCCNC(=N)N)NC(=O)[C@@H](N)CCCNC(=N)N)C(=O)N[C@@H](Cc1ccccc1)C(=O)N[C@@H](Cc1ccccc1)C(=O)N[C@@H](Cc1ccccc1)C(=O)N[C@@H](Cc1ccccc1)C(N)=O [HT3] (H-RRFLRRIFFFF-NH2; N-terminus assumed) | 6.25 (≈ 10 µg/mL) | 6.25 (≈ 10 µg/mL) | 3.13 (≈ 5.02 µg/mL) | 1.57 (≈ 2.52 µg/mL) | 6.25 (≈ 10 µg/mL) | 6.25 (≈ 10 µg/mL) | > 100.0 | 49 | 94 | 98.7 | 96.4 | 94.9 | 99.5 | 91.4 | 59.2 | 24.2 | – | 6.25 (≈ 10 µg/mL) | 25 (≈ 40.1 µg/mL) | 3.13 (≈ 5.02 µg/mL) | MICs against Gram-negative bacterial strains, such as A. baumannii and Klebsiella pneumoniae [1]: 6.25 µM; MICs against Gram-positive bacterial strains [14]: 1.57 to 3.13 µM; viability at 72 h, 0.78 µM ([10]; HEK293T, 0.78 µM, read-out: OD450, cytotoxicity (Fig 2a), replicates): 95.8%; viability at 72 h, 12.5 µM ([10]; HEK293T, 12.5 µM, read-out: OD450, cytotoxicity (Fig 2a), replicates): 94.4%; viability at 72 h, 3.13 µM [10, 15]: 97.8% |
| CC[C@H](C)[C@H](NC(=O)[C@H](CCCNC(=N)N)NC(=O)[C@H](CO)NC(=O)[C@H](CC(C)C)NC(=O)[C@H](Cc1ccccc1)NC(=O)[C@H](Cc1ccccc1)NC(=O)[C@H](Cc1ccccc1)NC(=O)[C@H](Cc1ccc(O)cc1)NC(=O)[C@@H](N)Cc1ccc(O)cc1)C(=O)N[C@@H](Cc1ccccc1)C(N)=O [YY-SHf] (H-YYFFFLSRIF-NH2; N-terminus assumed) | > 100 | > 100 | 6.25 (≈ 8.76 µg/mL) | 6.25 (≈ 8.76 µg/mL) | > 100 | > 100 | – | – | – | – | – | – | – | – | – | – | – | > 100 | > 100 | 50 (≈ 70.1 µg/mL) | MICs against MRSA [14]: 3.13 to 50 µM |
